Measured values: paper PMC5899833, “Population pharmacokinetics/pharmacodynamics of micafungin against Candida species in obese, critically ill, and morbidly obese critically ill patients” (Critical Care, 2018)
Read-outs that look alike come from different tables or passages of the source. Starred links: 1 amine or outer side, 2 acyl side, 3 side chain; linkers in the order of their positions; H or OH if unused. Positions of bridges follow the written chain, without caps; N, C: chain ends. Non-standard residues stand in square brackets, D forms with d. Residues, ends and D or L forms follow the SMILES beside them. *: point of attachment. hTyr(3S-OH,4S-OH,3'-OSO3H) = N[C@H](C(=O)O)[C@H](O)[C@@H](O)c1ccc(O)c(OS(=O)(=O)O)c1; Orn(4R-OH,5R-OH) = O=C([C@H](C[C@@H](O)[C@@H](O)N[*:3])N[*:1])[*:2]; Pro(3S-OH,4S-Me) = C[C@H]1CN[C@H](C(=O)O)[C@H]1O; X1 = CCCCCOc1ccc(-c2cc(-c3ccc(C(=O)*)cc3)no2)cc1; Gln(3R-OH) = NC(=O)C[C@@H](O)[C@H](N)C(=O)O; Hyp = O=C(O)[C@@H]1C[C@@H](O)CN1

Assay: Population pharmacokinetic model of total plasma micafungin in patients
Format: in vivo, human
Settings: 31 patients; for clearance: human
Description: A pharmacokinetic study was carried out in patients under micafungin empirical or directed treatment for invasive candidiasis. The population consisted of 11 morbidly obese critically ill adult patients (from the Hospital Universitario La Paz, Madrid, Spain), 10 nonobese critically ill patients, and 10 obese noncritically ill patients (from the Hospital del Mar, Barcelona, Spain). Patients admitted to ICUs were those considered to be critically ill. The study protocol was approved by the Ethics Committee of the Hospital La Paz (Madrid, Spain) and the Hospital del Mar (Barcelona, Spain). Written informed consent was obtained from patients (or relatives if the patient was unable to provide due to their critical situation) before blood sampling.
Demographic and clinical data prior to initiation of antifungal treatment were collected. Severity (Simplified Acute Physiology Score (SAPS) II), Sequential Organ Failure Assessment (SOFA) score, and risk for invasive candidiasis (Candida score) (except for patients with microbiologically documented infections) were calculated. Patients received dosage regimens of once-daily 100 mg or 150 mg micafungin (Astellas Pharma S.A., Spain) diluted in 100 ml isotonic saline solution that was intravenously infused over 60 min at the discretion of the treating physician (following the prescribing information and hospital treatment guidelines). On day 3, blood samples were collected at baseline (predose) and after 1, 3, 5, 8, 18, and 24 h. Additional blood samples at day 0 and day 7 were collected when feasible.
Total micafungin concentrations in plasma were measured by a validated ultra-high-performance liquid chromatography (UHPLC)-tandem mass spectrometry (MS/MS) method, from 0.2 to 30 μg/ml, on a Shimadzu Nexera 2 UHPLC system coupled to a Shimadzu 8030+ triple quadruple mass spectrometer (Shimadzu, Kyoto, Japan). Clinical samples were assayed alongside plasma calibrators and quality controls and met batch acceptance criteria.
To describe total micafungin concentrations, one- and two-compartment models were developed with the nonparametric adaptive grid algorithm within the freely available Pmetrics software package for R (Los Angeles, CA, USA). Elimination from the central compartment, and intercompartmental distribution into the peripheral compartment (two-compartment model), were modeled as first-order processes. The discrimination between different models resulted from the comparison of the −2 log-likelihood (−2LL). A p value of < 0.05 was considered statistically significant.
Age, gender, body weight, body mass index (BMI), Acute Physiology and Chronic Health Evaluation (APACHE) II, serum creatinine concentration, measured creatinine clearance, Cockroft-Gault estimated creatinine clearance, and serum albumin concentration were evaluated as covariates. Covariate selection was performed using a stepwise linear regression from R on all covariates and Bayesian posterior parameters. Potential covariates were separately entered into the model and statistically tested by use of the –2LL values.
Goodness-of-fit was assessed by linear regression, with an observed-predicted plot, coefficients of determination, and LL values. Predictive performance evaluation was based on mean error of prediction (bias) and mean bias-adjusted squared error of prediction (imprecision) of the population and individual prediction models. The internal validity of the population pharmacokinetic model was assessed by the bootstrap resampling method (n = 1000) and normalized prediction distribution errors (NPDE). Using a visual predictive check method, parameters obtained from the bootstrap method were plotted with the observed concentrations. NPDE plots were checked for normal distribution characteristics and trends in data errors. […]

[1] = final two-compartment covariate population PK model, 100 or 150 mg once daily iv
[2] = final two-compartment covariate population PK model, 100 or 150 mg once daily iv, SD

SMILES: CCCCCOc1ccc(-c2cc(-c3ccc(C(=O)N[C@H]4C[C@@H](O)[C@@H](O)NC(=O)[C@@H]5[C@@H](O)[C@@H](C)CN5C(=O)[C@H]([C@H](O)CC(N)=O)NC(=O)[C@H]([C@H](O)[C@@H](O)c5ccc(O)c(OS(=O)(=O)O)c5)NC(=O)[C@@H]5C[C@@H](O)CN5C(=O)[C@H]([C@@H](C)O)NC4=O)cc3)no2)cc1 [micafungin] (X1-[Orn(4R-OH,5R-OH)]T[Hyp][hTyr(3S-OH,4S-OH,3'-OSO3H)][Gln(3R-OH)][Pro(3S-OH,4S-Me)]; lactam 1-C)
- Central volume, median [1]: 16.34 L
- kcp, median [1]: 0.26 h⁻¹
- kpc, median [1]: 0.14 h⁻¹
- Central volume, mean ± SD [2]: 16.34 ± 5.87 L
- kcp (rate constant central to peripheral compartment), mean ± SD [2]: 0.38 ± 0.37 h⁻¹
- kpc (rate constant peripheral to central compartment), mean ± SD [2]: 0.32 ± 0.31 h⁻¹
- clearance (plasma, iv, final two-compartment covariate population PK model, 100 or 150 mg once daily iv, read-out: Clearance, median (converted)): 12.2 mL/min
- clearance (final two-compartment covariate population PK model (weight, age on CL), 100 or 150 mg once daily iv over 60 min, 242 total plasma concentrations, UHPLC-MS/MS, SD, read-out: Clearance, mean ± SD (converted)): 13.3 mL/min
